Assay results taken from US6077872A (priority 1998, dated 2000).
Like-named read-outs stand apart in the source and are kept apart here.

Experiments:
ovariectomized rats = conditions: for serum Ca / serum P / serum Tr-ACP (in Bessey-Loury unit) / serum AKP (in Bessey-Loury unit): 75 days; for serum Ca: model-control 1.40 ± 0.72; for serum P: model-control 1.91 ± 0.34; for serum Tr-ACP (in Bessey-Loury unit): model-control 8.4 ± 2.8; for serum AKP (in Bessey-Loury unit): model-control 50.3 ± 15
Experimental: (3) Pure synthetic low-calcium diet was formulated by mixing 40% fine wheat flour, 40% maize flour, 10% tyroprotein, 5% peanut oil, 3% AIN-76 mixed salts, 1% AIN-76 mixed vitamins, 1% cellulose and 0.3% DL-methionine, in which the calcium salt in AIN-76 mixed salts was replaced by glucose, and this preparation contains 64 mg calcium/100 g.
The test period was 75 days.
Serum Ca, P and AKP were measured by a 4010 Automatic Biochemical Analyzer. Serum Ca was determined by calorimetric method using methylthymol blue. Serum P was determined by Mono-Reagent Method. Alkaline phosphatase was determined by method of disodium p-nitrophenylphosphonate (AKP) The tartaric-resistant acidic phosphatase (Tr-ACP) mineral was determined by Piedra procedure. All above reagent-box were available from the Clinical Chemicals Sub-plant of Beijing Chemical Plant.

rickets-mice [1] = experiment: Preventing rickets in younger mice: body weight, dry weight, ash weight and total calcium content of femur; type: in vivo, mice of Kunming species; conditions: for dry weight of femur: model 0.099 ± 0.014; for total calcium content: model 24.81 ± 4.36; for ash weight: model 46.62 ± 9.38
Experimental: (§1) The mice were bred for 60 days under conditions of avoiding light around-the-clock, at a temperature of 20-25° C. and a relative humility of 40-60% while the normal-control group mice were fed ordinary diet and water and were placed in non-dark room.
(§2) The low-calcium diet used in this test was the same as that in Test II but VD in the vitamin mixture was replaced by glucose.
(§3) Some weanling mice were placed in dark room and fed VD -deficient low-calcium diet and drunk de-ionized water for 60 days, thus a ricket model of baby mice was prepared. While other weanling mice were placed in non-dark room and fed ordinary diet and drunk tap water for 60 days, these mice were established as normal-control group.

rickets-mice [2] = experiment: Preventing rickets in younger mice: tibia strength (three-point bending); type: in vivo, mice of Kunming species; conditions: for breaking force (tibia): model 1.12 ± 0.37
Experimental: as §1, §2, §3

rickets-babies [3] = conditions: for craniomalacia, babies with symptom after the beginning of test: before test 3 (threonate), 4 (carbonate); for pillow-bald, babies with symptom after the beginning of test: before test 9 (threonate), 9 (carbonate); for night-sweat, babies with symptom after the beginning of test: before test 12 (threonate), 13 (carbonate)
Experimental: Fourty rickets-babies at the age of 3-10 months were randomly divided into 2 groups of 20 babies each. […] Test group II, namely the calcium carbonate group, were administered orally calcium carbonate twice a day in a dosage of one bag each time. Each bag of the two kind of calcium preparations contained the same amount of element calcium, namely 150 mg element calcium.
(1) Clinic symptoms mainly included the normal symptoms of rickets-babies such as night-sweat, pillow-bald, craniomalacia, etc.

rickets-babies [4] = test system: rickets-babies
Experimental: Fourty rickets-babies at the age of 3-10 months were randomly divided into 2 groups of 20 babies each. […] Test group II, namely the calcium carbonate group, were administered orally calcium carbonate twice a day in a dosage of one bag each time.
(2) Biochemical examinations of blood. Venous blood of rickets-baby was sampled before and after the beginning of test and serum Ca, P and AKP level were measured and the product of [Ca]×[P] was calculated.
(3) Data processing: All data was statistically analyzed using the method of direct calculation of probability, grouping t-test and pairing t-test.
Considering the difficulty in sampling blood from rickets-babies during the test operation, blood sampling was not performed at the second week after the beginning of the test. Blood sampling was only performed before the test and at the fourth week after the beginning of the test.

[5] = Solubility of calcium L-threonate; type: physicochemical
[6] = dog, in vivo
in vivo = conditions: dog, po, 200 mg/kg
[7] = test system: ovariectomized rats with osteoporosis; experiment: Test II: bone mineral density of femur in ovariectomized rats; conditions: for bone density F50: center of femur; for bone density F20: proximal position 20%, model-control 0.256 ± 0.022
Experimental: Female 3-month-aged rats which had been excised of bilateral ovaries under sterilized condition were fed for a week until their wound was cured. Seventy healthy rats were selected and divided randomly into five groups of 14 rats. […] Group 1-5 were administered one time per day and 6 times per week and were also fed low-calcium diet and de-ionized water. The test period was 75 days. […] The bilateral femurs of rats were stripped off and stored in refrigerator. After the measurement of the bone mineral density, the left femur was stored for analysis of biomechanical characteristics.
(4) Measurement of bone mineral density. Fresh femur iced in refrigerator was measured of bone mineral content at the center (F50) and the proximal position 20% (F20) of femur by single photon absorptiometry (Model BMD400GI) with a scanning speed of 0.25 mm/s and a precision degree of 99%, the Apparatus was proofread using a standard apparatus provided by Jishuitan Hospital, Beijing. The data was processed by software used clinically. The bone mineral content was expressed by a unit of bone mineral content per square centimeter (BMC/cm^2).

[8] = after four weeks of Ca-supplementing

## O=C(O)[C@H](O)[C@@H](O)CO [calcium L-threonate]
Ovariectomized rats; 100 mg element calcium/kg/d
  serum Ca: 1.60 ± 0.75 mmol/L
  serum P: 2.08 ± 0.66 mmol/L
  serum Tr-ACP (in Bessey-Loury unit): 8.8 ± 1.8 U/L
  serum AKP (in Bessey-Loury unit): 48.7 ± 8.0 U/L
Ovariectomized rats; 200 mg element calcium/kg/d
  serum Ca: 2.35 ± 0.35 mmol/L
  serum P: 1.87 ± 0.58 mmol/L
  serum Tr-ACP (in Bessey-Loury unit): 7.9 ± 2.4 U/L
  serum AKP (in Bessey-Loury unit): 41.4 ± 14 U/L
Ovariectomized rats; 300 mg element calcium/kg/d
  serum Ca: 2.30 ± 0.75 mmol/L
  serum P: 1.88 ± 0.58 mmol/L
  serum Tr-ACP (in Bessey-Loury unit): 7.2 ± 2.1 U/L
  serum AKP (in Bessey-Loury unit): 38.2 ± 10 U/L
Ovariectomized rats; chronic feeding
  AKP and Tr-ACP effect (in words): might decrease the AKP and Tr-ACP levels in serum
Ovariectomized rats; long-time feeding
  serum Ca effect (in words): markedly raise the serum calcium level
Ovariectomized rats; rat, in vivo
  blood P effect (in words): no evidence
rickets-mice [1]; 200 mg calcium element
  dry weight of femur: 0.121 ± 0.010 g
  total calcium content: 36.23 mg
  ash weight: 69.44 ± 6.62 mg
rickets-mice [1]; 300 mg calcium element
  dry weight of femur: 0.131 ± 0.013 g
  total calcium content: 38.90 ± 13.78 mg
  ash weight: 74.73 ± 12.31 mg
rickets-mice [1]; P<0.05
  Ca deposited in femur versus calcium gluconate (in words): much higher than that of calcium gluconate
rickets-mice [1]; high and low dosage
  dry femur weight, ash weight and total calcium content (in words): markedly higher than those of the model group and were approximate to those of the normal-control group
rickets-mice [2]; 200 mg calcium element
  breaking force (tibia): 1.49 ± 0.38 kg
rickets-mice [2]; 300 mg calcium element
  breaking force (tibia): 1.59 ± 0.27 kg
rickets-mice [2]; mouse, in vivo
  breaking force of tibia (in words): significantly higher than those for the model group and were comparable with those for the normal-control group
rickets-babies [3]; 300 mg element calcium
  therapeutic effect on baby rickets (in words): significantly superior to that of calcium carbonate
rickets-babies [3]; four weeks
  total symptom improvement: 100%
  craniomalacia, babies with symptom after the beginning of test: 0
  pillow-bald, babies with symptom after the beginning of test: 0
  night-sweat, babies with symptom after the beginning of test: 0
rickets-babies [3]; two weeks
  total symptom improvement: 62.5%
  craniomalacia, babies with symptom after the beginning of test: 2
  pillow-bald, babies with symptom after the beginning of test: 7
  night-sweat, babies with symptom after the beginning of test: 0
rickets-babies [3]; two weeks of administration (concluding text)
  rickets-babies free of symptoms: 62%
rickets-babies [4]; [8]
  percentage of babies whose AKP reached the normal range: 90%
  percentage of babies whose [Ca] × [P] reached the normal range: 100%
  percentage of babies whose serum P reached the normal range: 100%
rickets-babies [4]; before and after the test, P>0.05
  serum Ca change (in words): no significant variation
rickets-babies [4]; four weeks
  serum P and AKP after test versus normal range (in words): raise the indexes to the normal range of value
rickets-babies [4]; four weeks after, before 3.19 ± 0.25 (threonate), 3.12 ± 0.20 (carbonate)
  serum P: 4.50 ± 0.26
rickets-babies [4]; four weeks after, before 10.49 ± 0.39 (threonate), 10.51 ± 0.47 (carbonate)
  serum Ca: 10.65 ± 0.35
rickets-babies [4]; four weeks after, before 33.4 ± 2.47 (threonate), 33.83 ± 2.17 (carbonate)
  [Ca] × [P]: 47.34 ± 3.15
rickets-babies [4]; four weeks after, before 235.95 ± 7.89 (threonate), 235.25 ± 7.37 (carbonate)
  AKP: 203.75 ± 11.46
[5]; alcohol, ether, chloroform
  solubility in alcohol, ether and chloroform: not in alcohol, ether and chloroform
[5]; water
  solubility in water: can be solved in water
[6]
  kinetic change of serum levels and pharmaceutical dynamic parameters (in words): consistent with those of rats
In vivo
  Tmax: 1.21 h
  concentration at 0.5 h: 23100 ± 2680 ng/mL
  concentration at 1 h: 35900 ± 4410 ng/mL
  concentration at 2 h: 74040 ± 500 ng/mL
  concentration at 3 h: 46000 ng/mL
  concentration at 4 h: 17200 ng/mL
  concentration at 6 h: 9990 ng/mL
  concentration at 8 h: 4660 ng/mL
  concentration at 12 h: 2800 ng/mL
  concentration at 16 h: 4300 ng/mL
  concentration at 24 h: 3990 ng/mL
  half-life: 3.57 h
[7]; 100 mg element calcium/kg/d
  bone density F50: 0.289 ± 0.021 BMC/BW
  bone density F20: 0.288 ± 0.021 BMC/BW
[7]; 200 mg element calcium/kg/d
  bone density F50: 0.282 ± 0.020 BMC/BW
  bone density F20: 0.315 ± 0.032 BMC/BW
[7]; 300 mg element calcium/kg/d
  bone density F20: 0.314 ± 0.020 BMC/BW
[7]; versus model-control group
  bone density effect (in words): markedly higher than that of model-control group rats
